Measurements: patent publication US7622551B2, “Leukocyte stimulating peptides” (POSCO, priority 2004, dated 2009)
Where no end group is shown, it is not given here.

Legend:
[1] = system: human neutrophils; experiment: Superoxide generation (cytochrome c reduction) in human neutrophils; format: cell-based; settings: 1 μM of peptide, cytochrome c reduction
Description: Peripheral blood leukocyte concentrates were donated by the Ulsan Red Cross Blood Center (Ulsan, Korea). PBMCs were separated on a Histopaque-1077 gradient. After two washings with HBSS without Ca^2+ and Mg^2+, the PBMCs were suspended in 10% FBS containing RPMI and incubated for 60 min at 37° C. to let the monocytes attach to the culture dish. Cells were washed 5 times with warmed RPMI medium to remove lymphocytes, and then the attached monocytes were collected, as described previously (Bae et al. J. Leukoc. Biol. 1999. 65: 241-248). Human neutrophils were isolated according to standard procedures; i.e., dextran sedimentation, hypotonic lysis of erythrocytes, and using a medium lymphocyte separation gradient, as described previously (Seo et al. J. Immunol. 1997. 158: 1895-1901). Isolated human leukocytes were then used promptly.
We determined superoxide anion generation by measuring cytochrome c reduction using a microtiter 96 well plate ELISA reader (Bio-Tekinstruments, EL312e, Winooski, Vt.) as described previously (Bae et al. Blood. 2001. 97: 2854-2862). Human neutrophils (1×10^6 cells/100 μl of RPMI 1640 medium per well of a 96-well plate) were preincubated with 50 μM of cytochrome c at 37° C. for 1 min and then incubated with the indicated peptide concentrations. Superoxide generation was determined from change in light absorption at 550 nm over 5 minutes at 1 min intervals.

[2] = target: T1, FPRL1 (Homo sapiens, UniProt P25090); experiment: [Ca2+]i increase in FPRL1-expressing RBL-2H3 cells; format: cell-based; settings: 10 μM of each peptide (FIG. 7)
T1 construct: expressed in transfected cells; host or cells: RBL-2H3
T1 sequence (P25090 1-351): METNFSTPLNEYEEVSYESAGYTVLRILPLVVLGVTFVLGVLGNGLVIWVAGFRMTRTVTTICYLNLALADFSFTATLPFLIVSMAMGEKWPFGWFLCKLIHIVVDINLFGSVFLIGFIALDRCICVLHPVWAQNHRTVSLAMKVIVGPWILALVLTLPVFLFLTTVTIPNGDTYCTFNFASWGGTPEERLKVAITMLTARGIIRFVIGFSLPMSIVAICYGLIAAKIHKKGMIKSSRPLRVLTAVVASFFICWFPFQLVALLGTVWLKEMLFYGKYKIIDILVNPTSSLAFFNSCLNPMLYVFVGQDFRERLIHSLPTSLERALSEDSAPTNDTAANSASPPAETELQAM
Description: (§1) U937 (human histiocytic lymphoma cells), HL60 (human promyelocytic leukemia cells), Raw 264.7 (mouse macrophage), Jurkat (human acute T cell leukemia), PC12 (rat adrenal pheochromocytoma cells), 3Y1 (Rat embryonic fibroblasts), 3T3L1 (preadipocytes), and NCI-H292 (human mucoepidermoid pulmonary carcinoma cells) were obtained from the American Type Culture Collection (Rockville, Md.) and maintained as recommended. FPR- or FPRL1 expressing RBL-2H3 cells were cultured as described previously (He et al. J. Immunol. 2000. 165: 4598-4605). Cells were maintained at about 1×10^6 cells/ml under standard incubator conditions (humidified atmosphere, 95% air, 5% CO2, at 37° C.). HL60 cells were induced to differentiate into the granulocyte phenotype by adding dimethylsulfoxide (DMSO) (final concentration 1.25%, v/v) for 4 days to the culture medium, as described previously (Itoh et al. Blood. 1998. 92: 1432-1441).
(§2) The level of [Ca^2+]i was determined using Grynkiewicz's method using fura-2/AM (Grynkiewicz et al. J. Biol. Chem. 1985. 260: 3440-3550). Briefly, prepared cells were incubated with 3 μM of fura-2/AM at 37° C. for 50 min in serum-free RPMI 1640 medium under continuous stirring. 2×10^6 cells were aliquoted for each assay in Ca^2+ free Locke's solution (154 mM NaCl, 5.6 mM KCl, 1.2 mM MgCl2, 5 mM HEPES, pH 7.3, 10 mM glucose, and 0.2 mM EGTA). Fluorescence changes were measured at the dual excitation wavelength of 340 nm and 380 nm, and the calculated fluorescence ratio was translated into [Ca^2+]i.

[3] = system: differentiated HL60 cells; experiment: Arachidonic acid (AA) release in [3H]AA-labeled dHL60 cells; format: cell-based, human
Description: as §1
For the initial screening of the PS-SPCLs, we measured the AA release stimulating activity of each peptide pool. Cultured dHL60 cells (10^7 cells/ml) were pre-labeled with 0.5 μCi/ml of (^3H)-AA in RPMI 1640 medium containing 10% FBS for 90 min at 37° C. in a humidified incubator supplied with 95% air and 5% CO2, as described previously (Bae et al. J. Immunol. 2000. 164: 4089-4096). The labeled cells were then washed twice with serum-free RPMI 1640 and incubated in RPMI 1640 medium containing 0.1% fatty acid-free BSA for 15 min at 37° C. After discarding the medium, the cells were stimulated with various concentrations of peptide for the indicated times. Radioactivity in the medium and of collected cells was determined with a liquid scintillation counter. When investigating the effects of inhibitors, cells were preincubated with the indicated concentrations of each inhibitor or vehicle for 15 min prior to stimulation.

[4] = system: undifferentiated HL60 cells; experiment: [Ca2+]i increase in undifferentiated HL60 cells; format: cell-based, human
Description: as §1, §2

[5] = system: ERK; experiment: ERK phosphorylation in dHL60 cells (anti-phospho-ERK immunoblot); format: cell-based, human
Description: Each sample (30 μg of protein) was subjected to 8% SDS-PAGE, and phosphorylated ERK was quantified by immunoblot analysis with anti-phospho-ERK antibody. The results shown are from a single experiment representative of at least three independent experiments.
Extracellular signal regulated protein kinase (ERK) is a well-known intracellular enzyme that mediates diverse cellular responses (Sugden et al. Cell Signal. 1997. 9: 337-351). […] To compare the intracellular signaling involving these 4 peptides, dHL60 cells were pretreated either with LY294002 (50 μM), GF109203X (5 μM), or PD98059 (50 μM) or left untreated as a control. After being incubated for the indicated periods (15 minutes for LY294002 and GF109203X, 60 minutes for PD98059), the cells were stimulated with 1 μM of each peptide for 5 minutes.

[6] = system: differentiated HL60 cells; experiment: [Ca2+]i increase in fura-2 loaded dHL60 cells; format: cell-based, human
Description: as §1, §2

[7] = target: T2, FPR (Homo sapiens, UniProt P21462); experiment: [Ca2+]i increase in FPR-expressing RBL-2H3 cells; format: cell-based; settings: data not shown
T2 construct: expressed in transfected cells; host or cells: RBL-2H3
T2 sequence (P21462 1-350): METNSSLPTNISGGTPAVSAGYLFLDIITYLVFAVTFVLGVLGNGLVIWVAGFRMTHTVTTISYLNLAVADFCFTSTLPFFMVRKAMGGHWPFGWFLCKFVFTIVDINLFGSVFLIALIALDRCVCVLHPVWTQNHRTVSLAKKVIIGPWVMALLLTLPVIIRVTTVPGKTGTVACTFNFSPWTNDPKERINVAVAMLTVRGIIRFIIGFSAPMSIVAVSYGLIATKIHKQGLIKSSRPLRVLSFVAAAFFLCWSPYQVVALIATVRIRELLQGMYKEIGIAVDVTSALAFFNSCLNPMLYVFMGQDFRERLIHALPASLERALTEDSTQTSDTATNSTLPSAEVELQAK
Description: as §1, §2

[8] = system: human neutrophils; experiment: Chemotaxis assay (modified Boyden chamber), neutrophils; format: cell-based; settings: concentrations less than 10 μM
Description: (§3) FIGS. 6A and 6B show chemotactic effect of peptides. Assays were performed using a modified Boyden chamber assay, as described in the Examples. Isolated human neutrophils (A) or monocytes (B) (1×10^6 cells/ml in serum free RPMI) were added to the upper wells of a 96-well chemotaxis chamber and migration across a 3 μm pore size (5 μm for monocytes) polycarbonate membrane was assessed after 2 hrs incubation at 37° C. The numbers of migrated cells were determined by counting them in a high power field (400×). Results are presented as means±S.E. of three independent experiments each performed in duplicate.
Chemotaxis assays were performed using multiwell chambers (Neuroprobe Inc., Gaithersburg, Md.) (Bae et al. Blood. 2001. 97: 2854-2862). Briefly, prepared human monocytes were suspended in RPMI at a concentration of 1×10^6 cells/ml, and 25 μl of the suspension was then placed onto the upper well of a chamber separated by a 5 μm polyhydrocarbon filter (3 μm pores size not polyvinylpyrrolidone coated, as is needed for neutrophils) from peptides or N-formyl-methionyl-leucyl-phenylalanine (fMLF) in the lower well. […] Stained cells were counted in five randomly chosen high power fields (HPF) (400×) (Bae et al. Blood. 2001. 97: 2854-2862).

[9] = system: human monocytes; experiment: Chemotaxis assay (modified Boyden chamber), monocytes; format: cell-based; settings: FIG. 6B; control peptide at concentrations less than 10 μM
Description: as §3
Chemotaxis assays were performed using multiwell chambers (Neuroprobe Inc., Gaithersburg, Md.) (Bae et al. Blood. 2001. 97: 2854-2862). Briefly, prepared human monocytes were suspended in RPMI at a concentration of 1×10^6 cells/ml, and 25 μl of the suspension was then placed onto the upper well of a chamber separated by a 5 μm polyhydrocarbon filter (3 μm pores size not polyvinylpyrrolidone coated, as is needed for neutrophils) from peptides or N-formyl-methionyl-leucyl-phenylalanine (fMLF) in the lower well. After incubation for 2 hours (90 minutes for neutrophils) at 37° C., non-migrated cells were removed by scraping, and cells that migrated across the filter were dehydrated, fixed, and stained with hematoxylin (Sigma, St. Louis, Mo.). Stained cells were counted in five randomly chosen high power fields (HPF) (400×) (Bae et al. Blood. 2001. 97: 2854-2862).

Row | Substance | Superoxide production [1] [nmole/10^6 cells] | [Ca^2+]i increase in FPRL1-expressing RBL-2H3 cells [2] | AA release stimulating activity (in words) ([3]; dHL60 cells, 10 μM) | Effect of cPLA2-specific inhibitors AACOCF3 and MAFP on peptide-induced AA release ([3]; dHL60 cells, inhibitor pretreatment 15 min, 1 μM peptide) | Folds of increase (% of total), arachidonic acid release ([3]; differentiated HL60 cells, 10 μM of peptide) [folds] | [Ca^2+]i increase in undifferentiated HL60 cells ([4]; peptides 10 μM (FIG. 8)) | Effect of PTX on peptide-stimulated calcium signaling ([4]; undifferentiated HL60 cells, data not shown) | Phosphorylation level of ERK ([5]; dHL60 cells (FIG. 9)) | Effect of GF109203X (PKC) on peptide-induced ERK phosphorylation ([5]; dHL60 cells, GF109203X (5 μM) 15 minutes, 1 μM peptide 5 minutes) | Effect of LY294002 (PI3K) on peptide-induced ERK phosphorylation ([5]; dHL60 cells, LY294002 (50 μM) 15 minutes, 1 μM peptide 5 minutes) | Effect of PD98059 (MEK) on peptide-induced ERK phosphorylation ([5]; dHL60 cells, PD98059 (50 μM) 60 minutes, 1 μM peptide 5 minutes) | Time of maximal ERK activation after stimulation ([5]; dHL60 cells, data not shown) [min] | Concentration of maximal activity, [Ca^2+]i increase ([6]; dHL60 cells, data not shown) | [Ca^2+]i ([6]; differentiated HL60 cells, fura-2, 1 μM of peptide) [nM] | [Ca^2+]i in FPR-expressing RBL-2H3 cells / ligand for FPR [7] | Cellular chemotaxis in neutrophils (in words) [8] | Cellular chemotaxis in human monocytes (in words) [9]
1 | RKYYYM-NH2 [Peptide P18] | 28.4 ± 3.21 | induced calcium increase | most potent | blocked | 2.61 ± 0.295 | dramatically induced | partially inhibited | dramatic increase | completely blocked | not by LY294002 | partially blocked | 5 | approximately 3 μM | 150 ± 14.5 | not for FPR |  | 
2 | LFMYHP [reference compound] |  | not to be able to induce calcium increase |  |  |  |  |  |  |  |  |  |  |  |  |  | did not induce | did not induce
